# Measured values published in PMC9177545, “3-oxo-C12:2-HSL, quorum sensing molecule from human intestinal microbiota, inhibits pro-inflammatory pathways in immune cells via bitter taste receptors” (Scientific Reports, 2022).
# Molecular target: T1, TAS2R138 (Mus musculus, UniProt Q7TQA6)
# T1 construct: endogenous in cells; host or cells: RAW264.7 murine macrophages (ATCC)
# T1 sequence (Q7TQA6 1-331): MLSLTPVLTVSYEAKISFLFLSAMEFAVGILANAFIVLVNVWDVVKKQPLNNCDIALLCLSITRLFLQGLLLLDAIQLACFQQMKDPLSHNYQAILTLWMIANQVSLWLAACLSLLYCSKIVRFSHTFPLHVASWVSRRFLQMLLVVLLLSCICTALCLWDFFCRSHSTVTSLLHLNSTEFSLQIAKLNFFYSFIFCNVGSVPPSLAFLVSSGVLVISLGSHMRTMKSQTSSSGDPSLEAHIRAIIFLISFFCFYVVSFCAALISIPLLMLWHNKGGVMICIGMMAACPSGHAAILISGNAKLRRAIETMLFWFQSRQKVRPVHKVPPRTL
# Assay: TAS2R38/TAS2R138 inhibition experiment: TNFα secretion of RAW264.7 cells pre-treated with probenecid
# Format: cell-based
# Conditions: 1 mM probenecid, one hour before LPS and IFNγ, six hours
# Method: In RAW264.7 cells, inflammation was triggered with LPS (10 ng/mL, Sigma) and IFNγ (10 U/mL, R&Dsystems) for 2 h or 6 h, depending on the experiments. PBMC were exposed to LPS (10 ng/mL) and AHL for 24 h. For TAS2R38 inhibition experiments, cells were exposed to TAS2R38 allosteric inhibitor probenecid (1 mM, Sigma) for one hour before adding AHLs and the inflammatory cocktail, without changing the media.
# At the end of cell treatment, the medium was centrifuged at 300g for 5 min at 4 °C. Supernatant was frozen at − 80 °C until ELISA assays. TNFα and IL-1β ELISA kits were purchased from R&D systems and performed according to the manufacturer’s instructions. Briefly, plates were coated with a capture antibody and incubated overnight. Wells were blocked using 1% bovine serum albumin-PBS solution (Sigma), then exposed to cell supernatants at room temperature for two hours. Wells were washed and incubated with the detection antibody for an additional two hours. After thorough washing, Streptavidin-HRP solution was added for 20 min. Wells were washed, then incubated with TMB (Biolegend) solution for 20 min and the reaction was stopped using 1 M H2SO4. Absorbance was measured by a spectrometer (FLUOstar Omega; BMG Labtech) at 450 nm and the absorbance at 540 nm was subtracted.
smiles,measurement,value
"CCCN(CCC)S(=O)(=O)c1ccc(C(=O)O)cc1 [probenecid, reference compound]",effect on TNFα secretion in activated cells cultured in absence of 3-oxo-C12:2-HSL,no effect
